Test results taken from PubChem BioAssay (NCI).
Where “and” joins values, the source holds several entries; their conditions need not be identical. Equal values may be shown once.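 96-well plates; 48 h exposure; 5 concentrations. Endpoints by linear interpolation between flanking doses. Not reached: highest tested concentration assigned. Abbreviation: GI50, concentration required for 50% inhibition of growth. TGI marks complete inhibition of growth.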

Legend:
Test in all cases: NCI-60 cell line screen, 48 h
DU-145 prostate = test system: DU-145 prostate
EKVX NSCLC = test system: EKVX NSCLC
HCT-15 colon = test system: HCT-15 colon
HS 578T breast = test system: HS 578T breast
K-562 leukemia = test system: K-562 leukemia
MDA-MB-231 breast = test system: MDA-MB-231 breast
NCI-H522 lung = test system: NCI-H522 lung
OVCAR-8 ovarian = test system: OVCAR-8 ovarian
RPMI-8226 leukemia = test system: RPMI-8226 leukemia
SK-OV-3 ovarian = test system: SK-OV-3 ovarian

`CC(C)C(N)(C(=O)O)c1ccccc1` (centres undefined) gave a TGI (DU-145 prostate) of over 100 µM, a TGI (EKVX NSCLC) of over 100 µM and a TGI (HCT-15 colon) of over 100 µM. For the same molecule, the TGI (HS 578T breast) was over 100 µM, the TGI (K-562 leukemia) was over 100 µM and the TGI (MDA-MB-231 breast) was over 100 µM. It also gave a TGI (NCI-H522 lung) of over 100 µM, a TGI (OVCAR-8 ovarian) of over 100 µM and a TGI (RPMI-8226 leukemia) of over 100 µM. For the same molecule, the TGI (SK-OV-3 ovarian) was over 100 µM.
`Cn1c(=O)c2[nH]c(COc3ccc(C(C)(C)C)cc3)nc2n(C)c1=O` showed a GI50 (DU-145 prostate) of 17.7 µM, a TGI (DU-145 prostate) of over 100 µM and a GI50 (EKVX NSCLC) of 3.34 µM. For the same molecule, the TGI (EKVX NSCLC) was over 100 µM, the GI50 (HCT-15 colon) was 19.9 µM and the TGI (HCT-15 colon) was over 100 µM. The GI50 (HS 578T breast) was 20.2 µM, the TGI (HS 578T breast) was over 100 µM and the GI50 (K-562 leukemia) was 3.28 µM. The TGI (K-562 leukemia) was over 100 µM, the GI50 (MDA-MB-231 breast) was 41.4 µM and the TGI (MDA-MB-231 breast) was over 100 µM. The GI50 (NCI-H522 lung) was 19.6 µM, the TGI (NCI-H522 lung) was 88 µM and the GI50 (OVCAR-8 ovarian) was 18.3 µM. The TGI (OVCAR-8 ovarian) was 67.1 µM, the GI50 (RPMI-8226 leukemia) was 1.08 µM and the TGI (RPMI-8226 leukemia) was 18.4 µM. For the same molecule, the GI50 (SK-OV-3 ovarian) was 51.6 µM and the TGI (SK-OV-3 ovarian) was over 100 µM.
For `Cc1nc(NC(=O)N2CCC[C@H]2C(N)=O)sc1-c1ccnc(C(C)(C)C(F)(F)F)c1`, the GI50 (DU-145 prostate) was 4.84 µM and 9.16 µM, the TGI (DU-145 prostate) was over 73.1 µM and the GI50 (EKVX NSCLC) was 4.53 µM. For the same molecule, the TGI (EKVX NSCLC) was over 10 µM, the GI50 (HCT-15 colon) was 1.36 µM and 2.81 µM and the TGI (HCT-15 colon) was 47 µM and > 10 µM. The TGI (HS 578T breast) was 21.2 µM and 3.1 µM, the GI50 (K-562 leukemia) was 28.1 µM and > 10 µM and the TGI (K-562 leukemia) was over 100 µM. The GI50 (MDA-MB-231 breast) was 11.3 µM and > 10 µM, the TGI (MDA-MB-231 breast) was 32 µM and > 10 µM and the GI50 (NCI-H522 lung) was 6.41 µM and 8.17 µM. For the same molecule, the TGI (NCI-H522 lung) was 27.1 µM and > 10 µM, the GI50 (OVCAR-8 ovarian) was 8.28 µM and > 10 µM and the TGI (OVCAR-8 ovarian) was 76.2 µM and > 10 µM. For the same molecule, the GI50 (RPMI-8226 leukemia) was 16.1 µM and > 10 µM, the TGI (RPMI-8226 leukemia) was 58.5 µM and > 10 µM and the GI50 (SK-OV-3 ovarian) was 0.134 µM and 0.262 µM. The TGI (SK-OV-3 ovarian) was 5.98 µM and 6.37 µM.
`COc1ccc2c(c1)OC13Oc4cc(OC)ccc4C=C1CCCC3=C2` was tested, and the GI50 (DU-145 prostate) was over 100 µM, the TGI (DU-145 prostate) was over 100 µM and the GI50 (EKVX NSCLC) was over 100 µM. It also gave a TGI (EKVX NSCLC) of over 100 µM, a GI50 (HCT-15 colon) of over 100 µM and a TGI (HCT-15 colon) of over 100 µM. For the same molecule, the GI50 (HS 578T breast) was over 100 µM, the TGI (HS 578T breast) was over 100 µM and the GI50 (K-562 leukemia) was over 100 µM. It also gave a TGI (K-562 leukemia) of over 100 µM, a GI50 (MDA-MB-231 breast) of over 100 µM and a TGI (MDA-MB-231 breast) of over 100 µM. It also gave a GI50 (NCI-H522 lung) of over 100 µM, a TGI (NCI-H522 lung) of over 100 µM and a GI50 (OVCAR-8 ovarian) of over 100 µM. For the same molecule, the TGI (OVCAR-8 ovarian) was over 100 µM, the GI50 (RPMI-8226 leukemia) was 6.12 µM and the TGI (RPMI-8226 leukemia) was over 100 µM. For the same molecule, the GI50 (SK-OV-3 ovarian) was over 100 µM and the TGI (SK-OV-3 ovarian) was over 100 µM.
In the case of `CN(C)c1ccc(/C=C/c2ccnc3ccccc23)cc1`, the GI50 (DU-145 prostate) is reported as 5.86 µM, the TGI (DU-145 prostate) is reported as over 100 µM and the GI50 (EKVX NSCLC) is reported as 3.19 µM. For the same molecule, the TGI (EKVX NSCLC) was > 100 µM and 30.2 µM, the GI50 (HCT-15 colon) was 3.76 µM and the TGI (HCT-15 colon) was over 100 µM. The GI50 (HS 578T breast) was 3.67 µM, the TGI (HS 578T breast) was 57 µM and > 30.1 µM and the GI50 (K-562 leukemia) was 1.66 µM. For the same molecule, the TGI (K-562 leukemia) was over 100 µM, the GI50 (MDA-MB-231 breast) was 5.36 µM and the TGI (MDA-MB-231 breast) was > 100 µM and 30 µM. The GI50 (NCI-H522 lung) was 10.5 µM, the TGI (NCI-H522 lung) was over 100 µM and the GI50 (OVCAR-8 ovarian) was 5.68 µM. For the same molecule, the TGI (OVCAR-8 ovarian) was over 100 µM, the GI50 (RPMI-8226 leukemia) was 2.77 µM and the TGI (RPMI-8226 leukemia) was > 100 µM and 12.9 µM. The GI50 (SK-OV-3 ovarian) was 4.42 µM and the TGI (SK-OV-3 ovarian) was > 100 µM and 48.7 µM.
With `O=C(NNS(=O)(=O)c1cc(C(F)(F)F)cc(C(F)(F)F)c1)c1cnn(-c2ccc(Cl)cc2)c1C(F)(F)F` the GI50 (DU-145 prostate) was 18.6 µM, the TGI (DU-145 prostate) was 44.1 µM and the GI50 (EKVX NSCLC) was 16 µM. It also gave a TGI (EKVX NSCLC) of 43.2 µM, a GI50 (HCT-15 colon) of 16 µM and a TGI (HCT-15 colon) of 37.5 µM. It also gave a GI50 (HS 578T breast) of 18.4 µM, a TGI (HS 578T breast) of 44.6 µM and a GI50 (K-562 leukemia) of 23.1 µM. For the same molecule, the TGI (K-562 leukemia) was 65.7 µM, the GI50 (MDA-MB-231 breast) was 19.6 µM and the TGI (MDA-MB-231 breast) was 40.3 µM. It also gave a GI50 (NCI-H522 lung) of 18.8 µM, a TGI (NCI-H522 lung) of 43.1 µM and a GI50 (OVCAR-8 ovarian) of 16.1 µM. For the same molecule, the TGI (OVCAR-8 ovarian) was 51.7 µM, the GI50 (RPMI-8226 leukemia) was 13.3 µM and the TGI (RPMI-8226 leukemia) was 33.1 µM. For the same molecule, the GI50 (SK-OV-3 ovarian) was 22.9 µM and the TGI (SK-OV-3 ovarian) was 61.7 µM.
